Reference: PubChem BioAssay (NCI)
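GI50 = concentration required for 50% inhibition of growth. The concentration for full growth arrest is given as TGI.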

Experiments:
Test in all cases: growth of human tumour cells (NCI), 384-well format
A498 renal = tested on: A498 renal
ACHN renal = tested on: ACHN renal
BT-549 breast = tested on: BT-549 breast
CAKI-1 renal = tested on: CAKI-1 renal
CCRF-CEM leukemia = tested on: CCRF-CEM leukemia
COLO 205 colon = tested on: COLO 205 colon
DU-145 prostate = tested on: DU-145 prostate
EKVX NSCLC = tested on: EKVX NSCLC
HCC-2998 colon = tested on: HCC-2998 colon
HCT-116 colon = tested on: HCT-116 colon
HCT-15 colon = tested on: HCT-15 colon
HL-60(TB) leukemia = tested on: HL-60(TB) leukemia
HOP-62 NSCLC = tested on: HOP-62 NSCLC
HOP-92 NSCLC = tested on: HOP-92 NSCLC
HT29 colon = tested on: HT29 colon
KM12 colon = tested on: KM12 colon
LOX IMVI melanoma = tested on: LOX IMVI melanoma
M14 melanoma = tested on: M14 melanoma
MALME-3M melanoma = tested on: MALME-3M melanoma
MCF7 breast = tested on: MCF7 breast
MDA-MB-231 breast = tested on: MDA-MB-231 breast
MDA-MB-435 melanoma = tested on: MDA-MB-435 melanoma
MDA-MB-468 breast = tested on: MDA-MB-468 breast
MOLT-4 leukemia = tested on: MOLT-4 leukemia
NCI-H322M lung = tested on: NCI-H322M lung
NCI-H460 NSCLC = tested on: NCI-H460 NSCLC
NCI-H522 lung = tested on: NCI-H522 lung
NCI/ADR-RES ovarian = tested on: NCI/ADR-RES ovarian
OVCAR-3 ovarian = tested on: OVCAR-3 ovarian
OVCAR-4 ovarian = tested on: OVCAR-4 ovarian
OVCAR-8 ovarian = tested on: OVCAR-8 ovarian
PC-3 prostate = tested on: PC-3 prostate
RPMI-8226 leukemia = tested on: RPMI-8226 leukemia
SF-268 CNS = tested on: SF-268 CNS
SF-295 CNS = tested on: SF-295 CNS
SF-539 CNS = tested on: SF-539 CNS
SK-MEL-2 melanoma = tested on: SK-MEL-2 melanoma
SK-OV-3 ovarian = tested on: SK-OV-3 ovarian
SN12C renal = tested on: SN12C renal
SNB-19 CNS = tested on: SNB-19 CNS
SR leukemia = tested on: SR leukemia
SW-620 colon = tested on: SW-620 colon
T-47D breast = tested on: T-47D breast
TK-10 renal = tested on: TK-10 renal
UACC-257 melanoma = tested on: UACC-257 melanoma
UACC-62 melanoma = tested on: UACC-62 melanoma
UO-31 renal = tested on: UO-31 renal

## COc1cc(C)[nH]c(=O)c1CN1CCc2c(Cl)cc([C@H](OC)C3COC3)c(Cl)c2C1=O
A498 renal
  GI50: > 100 µM
  TGI: > 100 µM
ACHN renal
  GI50: > 100 µM
  TGI: > 100 µM
BT-549 breast
  GI50: > 100 µM
  TGI: > 100 µM
CAKI-1 renal
  GI50: > 100 µM
  TGI: > 100 µM
CCRF-CEM leukemia
  GI50: > 75.8 µM
  TGI: > 100 µM
COLO 205 colon
  GI50: > 100 µM
  TGI: > 100 µM
DU-145 prostate
  GI50: > 100 µM
  TGI: > 100 µM
EKVX NSCLC
  GI50: > 100 µM
  TGI: > 100 µM
HCC-2998 colon
  GI50: > 100 µM
  TGI: > 100 µM
HCT-116 colon
  GI50: > 100 µM
  TGI: > 100 µM
HCT-15 colon
  GI50: > 100 µM
  TGI: > 100 µM
HL-60(TB) leukemia
  GI50: > 78.5 µM
  TGI: > 100 µM
HOP-62 NSCLC
  GI50: > 100 µM
  TGI: > 100 µM
HOP-92 NSCLC
  GI50: > 100 µM
  TGI: > 100 µM
HT29 colon
  GI50: > 100 µM
  TGI: > 100 µM
KM12 colon
  GI50: > 100 µM
  TGI: > 100 µM
LOX IMVI melanoma
  GI50: > 100 µM
  TGI: > 100 µM
M14 melanoma
  GI50: > 100 µM
  TGI: > 100 µM
MALME-3M melanoma
  GI50: > 100 µM
  TGI: > 100 µM
MCF7 breast
  GI50: > 100 µM
  TGI: > 100 µM
MDA-MB-231 breast
  GI50: > 78.3 µM
  TGI: > 100 µM
MDA-MB-435 melanoma
  GI50: > 100 µM
  TGI: > 100 µM
MDA-MB-468 breast
  GI50: > 100 µM
  TGI: > 100 µM
MOLT-4 leukemia
  GI50: > 100 µM
  TGI: > 100 µM
NCI-H322M lung
  GI50: > 100 µM
  TGI: > 100 µM
NCI-H460 NSCLC
  GI50: > 100 µM
  TGI: > 100 µM
NCI-H522 lung
  GI50: > 100 µM
  TGI: > 100 µM
NCI/ADR-RES ovarian
  GI50: > 100 µM
  TGI: > 100 µM
OVCAR-3 ovarian
  GI50: > 100 µM
  TGI: > 100 µM
OVCAR-4 ovarian
  GI50: > 100 µM
  TGI: > 100 µM
OVCAR-8 ovarian
  GI50: > 100 µM
  TGI: > 100 µM
PC-3 prostate
  GI50: > 100 µM
  TGI: > 100 µM
RPMI-8226 leukemia
  GI50: 0.0849 µM
SF-268 CNS
  GI50: > 100 µM
  TGI: > 100 µM
SF-295 CNS
  GI50: > 100 µM
  TGI: > 100 µM
SF-539 CNS
  GI50: > 100 µM
  TGI: > 100 µM
SK-MEL-2 melanoma
  GI50: > 100 µM
  TGI: > 100 µM
SK-OV-3 ovarian
  GI50: > 100 µM
  TGI: > 100 µM
SN12C renal
  GI50: > 100 µM
  TGI: > 100 µM
SNB-19 CNS
  GI50: > 100 µM
  TGI: > 100 µM
SR leukemia
  GI50: > 100 µM
  TGI: > 100 µM
SW-620 colon
  GI50: > 100 µM
  TGI: > 100 µM
T-47D breast
  GI50: > 91.9 µM
  TGI: > 100 µM
TK-10 renal
  GI50: > 100 µM
  TGI: > 100 µM
UACC-257 melanoma
  GI50: > 100 µM
  TGI: > 100 µM
UACC-62 melanoma
  GI50: > 100 µM
  TGI: > 100 µM
UO-31 renal
  GI50: > 100 µM
  TGI: > 100 µM

## C[C@@H](Oc1cc(NS(=O)(=O)N2CCC2)nc(SCc2cccc(F)c2F)n1)[C@@H](O)CO
A498 renal
  GI50: > 79 µM
  TGI: > 100 µM
ACHN renal
  GI50: > 100 µM
  TGI: > 100 µM
BT-549 breast
  GI50: > 71.9 µM
  TGI: > 100 µM
CAKI-1 renal
  GI50: > 60.8 µM
  TGI: > 100 µM
CCRF-CEM leukemia
  GI50: > 63.3 µM
  TGI: > 100 µM
COLO 205 colon
  GI50: > 89.8 µM
  TGI: > 100 µM
DU-145 prostate
  GI50: > 100 µM
  TGI: > 100 µM
EKVX NSCLC
  GI50: > 100 µM
  TGI: > 100 µM
HCC-2998 colon
  GI50: > 77.4 µM
  TGI: > 100 µM
HCT-116 colon
  GI50: > 100 µM
  TGI: > 100 µM
HCT-15 colon
  GI50: > 100 µM
  TGI: > 100 µM
HL-60(TB) leukemia
  GI50: > 36 µM
  TGI: > 51.2 µM
HOP-62 NSCLC
  GI50: > 100 µM
  TGI: > 100 µM
HOP-92 NSCLC
  GI50: > 88.1 µM
  TGI: > 100 µM
HT29 colon
  GI50: > 100 µM
  TGI: > 100 µM
KM12 colon
  GI50: 98.3 µM
  TGI: > 100 µM
LOX IMVI melanoma
  GI50: 42.1 µM
  TGI: > 100 µM
M14 melanoma
  GI50: > 95.7 µM
  TGI: > 100 µM
MALME-3M melanoma
  GI50: > 82.1 µM
  TGI: > 100 µM
MCF7 breast
  GI50: > 52.1 µM
  TGI: > 100 µM
MDA-MB-231 breast
  GI50: > 75.9 µM
  TGI: > 100 µM
MDA-MB-435 melanoma
  GI50: > 100 µM
  TGI: > 100 µM
MDA-MB-468 breast
  GI50: > 78.2 µM
  TGI: > 100 µM
MOLT-4 leukemia
  GI50: > 61.8 µM
  TGI: > 100 µM
NCI-H322M lung
  GI50: > 100 µM
  TGI: > 100 µM
NCI-H460 NSCLC
  GI50: > 100 µM
  TGI: > 100 µM
NCI-H522 lung
  GI50: > 43.5 µM
  TGI: > 100 µM
NCI/ADR-RES ovarian
  GI50: > 100 µM
  TGI: > 100 µM
OVCAR-3 ovarian
  GI50: > 73.9 µM
  TGI: > 100 µM
OVCAR-4 ovarian
  GI50: > 72.7 µM
  TGI: > 100 µM
OVCAR-8 ovarian
  GI50: > 100 µM
  TGI: > 100 µM
PC-3 prostate
  GI50: > 76.7 µM
  TGI: > 100 µM
RPMI-8226 leukemia
  GI50: 20 µM
  TGI: > 60 µM
SF-268 CNS
  GI50: > 100 µM
  TGI: > 100 µM
SF-295 CNS
  GI50: > 100 µM
  TGI: > 100 µM
SF-539 CNS
  GI50: > 100 µM
  TGI: > 100 µM
SK-MEL-2 melanoma
  GI50: > 79.6 µM
  TGI: > 100 µM
SK-OV-3 ovarian
  GI50: > 83.6 µM
  TGI: > 100 µM
SN12C renal
  GI50: > 100 µM
  TGI: > 100 µM
SNB-19 CNS
  GI50: > 100 µM
  TGI: > 100 µM
SR leukemia
  GI50: > 100 µM
  TGI: > 100 µM
SW-620 colon
  GI50: > 100 µM
  TGI: > 100 µM
T-47D breast
  GI50: > 100 µM
  TGI: > 100 µM
TK-10 renal
  GI50: > 66 µM
  TGI: > 100 µM
UACC-257 melanoma
  GI50: > 87.1 µM
  TGI: > 100 µM
UACC-62 melanoma
  GI50: > 57.2 µM
  TGI: > 100 µM
UO-31 renal
  GI50: 17.9 µM
  TGI: 34.3 µM
